Experimental data from patent US9096559B2, “4-carboxybenzylamino derivatives as histone deacetylase inhibitors” (Merck Sharp & Dohme Corp., priority 2007, dated 2015).
pIC50: −log10 of the molar value. Read-outs that look alike come from different tables or passages of the source.

Assays:
HCT-116 = HCT-116 anti-proliferation (GI50); type: cell-based, human; details: means of n ≧ 2 experiments
Method: (§1) The novel compounds of the present invention were tested for their ability to inhibit proliferation of the human cervical cancer (HeLa) and colon carcinoma (HCT116) cells.
In this assay, also referred to as the Vialight Assay, cellular ATP levels are measured as a means of quantifying cellular proliferation. This assay makes use of a bioluminescent method from Cambrex (ViaLight PLUS, cat. #LT07-121). In the presence of ATP, luciferase converts luciferin to oxyluciferin and light. The amount of light produced (emission at 565 nm) is measured and correlates with a relative amount of proliferation. Human cervical cancer (HeLa) or colon carcinoma (HCT116) cells were incubated with vehicle or increasing concentrations of compound for 48, 72 or 96 hours. Cell proliferation was quantified by adding the cell lysis reagent (provided in the Vialight assay kit) directly to culture wells, followed by addition of the ATP-monitoring reagent (containing luciferase/luciferin). The amount of light produced is then measured (emission at 565 nm). The quantity of light produced, as measured by […], is directly proportional to the number of living cells in culture. […]

IKr ion channel = IKr ion channel (Homo sapiens (Human), UniProt Q12809); test: Displacement binding assay using radio-labeled MK-499
From the text: (§2) The ancillary pharmacology profiles of the SHI-1:2 carbamate analogs were also gathered to investigate off-target activities (Table 12).

[1] = biological target: histone deacetylase, subtype 1 (HDAC1) (Homo sapiens (Human), UniProt Q13547); test: HDAC1-Flag in vitro deacetylation assay; type: biochemical
How it was run: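 Enzyme: Flag epitope-tagged human HDAC1 complex immunopurified from stably expressing mammalian cells. Substrate carries an acetylated lysine side chain; deacetylation yields a fluorophore proportional to activity, measured as fluorescence.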

CYP2C9 = CYP2C9 (Homo sapiens (Human), UniProt P11712); test: CYP inhibition potential, CYP2C9; type: in vitro ADME
From the text: as §2

CYP3A4 = CYP3A4 (Homo sapiens (Human), UniProt P08684); test: CYP inhibition potential, CYP3A4; type: in vitro ADME
From the text: as §2

CYP2D6 = CYP2D6 (Homo sapiens (Human), UniProt P10635); test: CYP inhibition potential, CYP2D6; type: in vitro ADME
From the text: as §2

[2] = tested on: human cervical cancer (HeLa) and colon carcinoma (HCT116) cells; test: ATP (Vialight) cell proliferation assay, 72 hr; type: cell-based; details: IP = inflection point, cell line not given, read-out: Prol-72 hr IP (inflection point)
Method: as §1
In this assay, also referred to as the Vialight Assay, cellular ATP levels are measured as a means of quantifying cellular proliferation. This assay makes use of a bioluminescent method from Cambrex (ViaLight PLUS, cat. #LT07-121). In the presence of ATP, luciferase converts luciferin to oxyluciferin and light. The amount of light produced (emission at 565 nm) is measured and correlates with a relative amount of proliferation. Human cervical cancer (HeLa) or colon carcinoma (HCT116) cells were incubated with vehicle or increasing concentrations of compound for 48, 72 or 96 hours. Cell proliferation was quantified by adding the cell lysis reagent (provided in the Vialight assay kit) directly to culture wells, followed by addition of the ATP-monitoring reagent (containing luciferase/luciferin). The amount of light produced is then measured (emission at 565 nm). The quantity of light produced, as measured by […], is directly proportional to the number of living cells in culture.

[3] = means of n ≧ 2 experiments, read-out: HDAC1 IC50
[4] = IP = inflection point, read-out: HDAC1 IP (inflection point)

CYP2D6, sequence (P10635 whole entry): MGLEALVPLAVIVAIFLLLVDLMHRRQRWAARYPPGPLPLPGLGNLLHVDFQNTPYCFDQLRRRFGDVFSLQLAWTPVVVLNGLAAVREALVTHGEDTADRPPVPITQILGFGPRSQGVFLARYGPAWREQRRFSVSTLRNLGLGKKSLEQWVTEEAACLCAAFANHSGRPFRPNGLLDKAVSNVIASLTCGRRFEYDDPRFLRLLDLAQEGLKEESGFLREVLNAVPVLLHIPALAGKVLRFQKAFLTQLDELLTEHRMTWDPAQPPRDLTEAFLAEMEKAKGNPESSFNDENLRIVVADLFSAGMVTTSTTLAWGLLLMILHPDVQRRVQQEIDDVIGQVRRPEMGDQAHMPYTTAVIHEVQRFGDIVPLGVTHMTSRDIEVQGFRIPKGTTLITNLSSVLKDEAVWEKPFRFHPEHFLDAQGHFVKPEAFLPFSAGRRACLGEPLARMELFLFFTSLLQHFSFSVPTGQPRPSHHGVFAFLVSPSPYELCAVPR
histone deacetylase, subtype 1 (HDAC1), sequence (Q13547 whole entry): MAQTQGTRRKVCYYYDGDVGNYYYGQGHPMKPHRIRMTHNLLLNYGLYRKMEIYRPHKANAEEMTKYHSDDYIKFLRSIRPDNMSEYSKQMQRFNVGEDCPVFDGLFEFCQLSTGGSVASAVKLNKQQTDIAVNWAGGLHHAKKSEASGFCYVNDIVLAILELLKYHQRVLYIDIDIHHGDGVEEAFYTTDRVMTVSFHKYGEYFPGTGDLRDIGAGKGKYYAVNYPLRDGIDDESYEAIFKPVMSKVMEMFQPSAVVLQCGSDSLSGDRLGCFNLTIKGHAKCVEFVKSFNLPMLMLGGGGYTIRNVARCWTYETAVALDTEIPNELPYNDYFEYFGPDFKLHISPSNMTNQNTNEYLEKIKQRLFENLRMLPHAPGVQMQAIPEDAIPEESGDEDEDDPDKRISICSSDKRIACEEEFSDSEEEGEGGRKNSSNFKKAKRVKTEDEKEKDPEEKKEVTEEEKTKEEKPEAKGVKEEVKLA
CYP2C9, sequence (P11712 whole entry): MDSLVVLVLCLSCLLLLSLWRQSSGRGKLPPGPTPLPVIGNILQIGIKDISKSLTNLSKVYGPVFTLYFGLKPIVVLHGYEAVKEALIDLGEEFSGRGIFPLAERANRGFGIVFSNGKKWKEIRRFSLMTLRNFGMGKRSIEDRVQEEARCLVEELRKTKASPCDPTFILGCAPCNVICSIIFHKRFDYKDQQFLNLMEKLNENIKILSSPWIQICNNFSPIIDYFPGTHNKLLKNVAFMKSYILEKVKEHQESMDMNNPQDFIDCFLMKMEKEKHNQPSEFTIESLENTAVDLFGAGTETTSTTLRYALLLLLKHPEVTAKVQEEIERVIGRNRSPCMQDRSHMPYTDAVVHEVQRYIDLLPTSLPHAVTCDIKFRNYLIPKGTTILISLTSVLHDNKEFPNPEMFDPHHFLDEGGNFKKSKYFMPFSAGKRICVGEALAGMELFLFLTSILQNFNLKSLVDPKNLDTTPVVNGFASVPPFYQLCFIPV
IKr ion channel, sequence (Q12809 whole entry): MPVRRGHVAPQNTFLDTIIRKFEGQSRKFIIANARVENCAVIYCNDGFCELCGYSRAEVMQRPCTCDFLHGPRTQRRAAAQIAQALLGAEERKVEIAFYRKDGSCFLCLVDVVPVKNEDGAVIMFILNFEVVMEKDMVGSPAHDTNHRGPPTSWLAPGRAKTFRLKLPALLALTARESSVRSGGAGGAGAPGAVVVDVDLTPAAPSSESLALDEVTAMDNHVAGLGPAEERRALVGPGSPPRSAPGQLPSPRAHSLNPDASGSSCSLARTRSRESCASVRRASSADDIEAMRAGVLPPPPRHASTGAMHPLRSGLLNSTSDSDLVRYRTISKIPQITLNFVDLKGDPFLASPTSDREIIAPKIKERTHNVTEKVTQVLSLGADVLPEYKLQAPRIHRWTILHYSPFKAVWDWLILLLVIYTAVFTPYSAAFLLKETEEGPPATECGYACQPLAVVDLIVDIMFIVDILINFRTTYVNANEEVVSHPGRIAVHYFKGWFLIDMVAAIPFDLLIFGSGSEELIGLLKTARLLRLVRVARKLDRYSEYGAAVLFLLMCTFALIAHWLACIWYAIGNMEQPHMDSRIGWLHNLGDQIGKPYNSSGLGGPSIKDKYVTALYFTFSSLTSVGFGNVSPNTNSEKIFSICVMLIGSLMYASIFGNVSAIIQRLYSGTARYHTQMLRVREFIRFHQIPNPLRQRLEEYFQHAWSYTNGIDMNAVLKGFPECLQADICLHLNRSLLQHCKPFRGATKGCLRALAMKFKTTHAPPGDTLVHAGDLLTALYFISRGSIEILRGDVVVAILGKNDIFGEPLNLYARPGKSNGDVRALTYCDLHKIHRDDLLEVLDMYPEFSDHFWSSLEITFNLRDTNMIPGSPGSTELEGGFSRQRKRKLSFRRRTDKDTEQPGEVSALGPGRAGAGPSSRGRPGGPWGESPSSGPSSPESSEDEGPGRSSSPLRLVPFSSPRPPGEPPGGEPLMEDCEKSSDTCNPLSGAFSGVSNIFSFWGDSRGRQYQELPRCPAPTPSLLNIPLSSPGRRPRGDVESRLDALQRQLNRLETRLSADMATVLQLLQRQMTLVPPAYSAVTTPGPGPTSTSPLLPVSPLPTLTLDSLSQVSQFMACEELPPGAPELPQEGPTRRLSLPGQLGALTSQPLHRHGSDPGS
CYP3A4, sequence (P08684 whole entry): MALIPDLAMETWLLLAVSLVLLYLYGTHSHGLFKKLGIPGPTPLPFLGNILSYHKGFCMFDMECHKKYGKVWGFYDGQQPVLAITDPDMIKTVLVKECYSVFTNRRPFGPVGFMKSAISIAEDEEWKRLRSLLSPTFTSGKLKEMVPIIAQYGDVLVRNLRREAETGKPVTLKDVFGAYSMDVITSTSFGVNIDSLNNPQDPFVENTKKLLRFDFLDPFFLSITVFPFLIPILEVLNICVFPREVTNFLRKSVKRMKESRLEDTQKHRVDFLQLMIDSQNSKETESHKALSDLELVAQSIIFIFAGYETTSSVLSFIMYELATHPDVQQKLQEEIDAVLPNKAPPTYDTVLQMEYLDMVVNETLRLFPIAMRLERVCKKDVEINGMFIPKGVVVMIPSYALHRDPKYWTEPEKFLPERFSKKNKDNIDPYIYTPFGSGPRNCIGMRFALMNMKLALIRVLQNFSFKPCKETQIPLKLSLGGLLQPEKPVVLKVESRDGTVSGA

Row | Structure (SMILES) | GI50 (HCT-116) | pIC50 [1, 4] | pIC50 [2] | also measured
1 | Nc1ccc(-c2ccccc2)cc1NC(=O)c1ccc(CNc2ccncc2)cc1 [Example 61, N-(4-amino-3-biphenylyl)-4-[(4-pyridinylamino)methyl]benzamide] |  | 8.00 | 5.77 | 
2 | CN(Cc1ccc(C(=O)Nc2cc(-c3ccccc3)ccc2N)cc1)c1ccncc1 [Example 62, N-(4-amino-3-biphenylyl)-4-{[methyl(4-pyridinyl)amino]methyl}benzamide] |  | 8.00 | 5.44 | 
3 | Cc1c(CNCc2ccc(C(=O)Nc3cc(-c4ccccc4)ccc3N)cc2)cnn1C [Example 63, N-(4-amino-3-biphenylyl)-4-({[(1,5-dimethyl-1H-pyrazol-4-yl)methyl]amino}methyl)benzamide] |  | 7.89 | 6.17 | 
4 | CNCCCN(C)Cc1ccc(C(=O)Nc2cc(-c3ccccc3)ccc2N)cc1 [Example 64, N-(4-amino-3-biphenylyl)-4-({methyl[3-(methylamino)propyl]amino}methyl)benzamide] |  | 7.74 | 6.27 | 
5 | CC(C)CNCc1ccc(C(=O)Nc2cc(-c3ccccc3)ccc2N)cc1 [Example 65, N-(4-amino-3-biphenylyl)-4-[(isobutylamino)methyl]benzamide] |  | 7.46 | 6.05 | 
6 | COCC(C)NCc1ccc(C(=O)Nc2cc(-c3ccccc3)ccc2N)cc1 (stereo not drawn) [Example 66, N-(4-amino-3-biphenylyl)-4-{[(2-methoxy-1-methylethyl)amino]methyl}benzamide] |  | 7.64 | 5.96 | 
7 | Nc1ccc(-c2ccccc2F)cc1NC(=O)c1ccc(CNc2ccncc2)cc1 [Example 67, N-(4-amino-2′-fluoro-3-biphenylyl)-4-[(4-pyridinylamino)methyl]benzamide] |  | 7.64 | 5.68 | 
8 | Nc1ccc(-c2cccc(F)c2)cc1NC(=O)c1ccc(CNc2ccncc2)cc1 [Example 68, N-(4-amino-3′-fluoro-3-biphenylyl)-4-[(4-pyridinylamino)methyl]benzamide] |  | 7.57 | 5.04 | 
9 | Cc1csc(-c2ccc(N)c(NC(=O)c3ccc(CNc4ccncc4)cc3)c2)c1 [Example 69, N-[2-amino-5-(4-methyl-2-thienyl)phenyl]-4-[(4-pyridinylamino)methyl]benzamide] |  | 7.82 | 5.01 | 
10 | Cc1cscc1-c1ccc(N)c(NC(=O)c2ccc(CNc3ccncc3)cc2)c1 [Example 70, N-[2-amino-5-(4-methyl-3-thienyl)phenyl]-4-[(4-pyridinylamino)methyl]benzamide] |  | 6.74 | 4.89 | 
11 | Nc1ccc(-c2ccccc2)cc1NC(=O)c1ccc(CN2C(=O)OC[C@@H]2c2ccccc2)cc1 [Example 118, N-(4-aminobiphenyl-3-yl)-4-{[(4S)-2-oxo-4-phenyl-1,3-oxazolidin-3-yl]methyl}benzamide] |  | 7.19 | 5.85 | 
12 | Nc1ccc(-c2ccccc2)cc1NC(=O)c1ccc(CN2C(=O)OC[C@H]2Cc2ccccc2)cc1 [Example 119, N-(4-aminobiphenyl-3-yl)-4-{[(4R)-2-oxo-4-(phenylmethyl)-1,3-oxazolidin-3-yl]methyl}benzamide] |  | 7.05 | 5.77 | 
13 | Nc1ccc(-c2cccs2)cc1NC(=O)c1ccc(CN2C(=O)OC[C@H]2Cc2ccccc2)cc1 [Example 120, N-[2-amino-5-(2-thienyl)phenyl]-4-{[(4R)-2-oxo-4-(phenylmethyl)-1,3-oxazolidin-3-yl]methyl}benzamide] |  | 7.08 | 6.04 | 
14 | Nc1ccc(-c2ccccc2)cc1NC(=O)c1ccc(CN2C(=O)OC[C@@H]2Cc2ccccc2)cc1 [Example 121, N-(4-aminobiphenyl-3-yl)-4-{[(4S)-2-oxo-4-(phenylmethyl)-1,3-oxazolidin-3-yl]methyl}benzamide] |  | 7.02 | 5.85 | 
15 | Nc1ccc(-c2ccccc2)cc1NC(=O)c1ccc(CN2C(=O)OC[C@H]2c2ccccc2)cc1 [Example 122, N-(4-aminobiphenyl-3-yl)-4-{[(4R)-2-oxo-4-phenyl-1,3-oxazolidin-3-yl]methyl}benzamide] |  | 7.24 | 5.96 | 
16 | CC(=O)N(Cc1ccc(C(=O)Nc2cc(-c3cccs3)ccc2N)cc1)Cc1cn(C)nn1 [Example 123, 4-({Acetyl[(1-methyl-1H-1,2,3-triazol-4-yl)methyl]amino}methyl)-N-[2-amino-5-(2-thienyl)phenyl]benzamide] |  | 8.02 | 7.06 | 
17 | Nc1ccc(-c2cccs2)cc1NC(=O)c1ccc(CNCC(=O)O)cc1 [Example 124, {[4-({[2-amino-5-(2-thienyl)phenyl]amino}carbonyl)benzyl]amino}acetic acid] |  | 7.47 | < 4.70 | 
18 | Nc1ccc(-c2ccsc2)cc1NC(=O)c1ccc(CNCC(=O)O)cc1 [Example 125, {[4-({[2-amino-5-(3-thienyl)phenyl]amino}carbonyl)benzyl]amino}acetic acid] |  | 7.38 | < 4.70 | 

More lines, main results first:

Row | GI50 (HCT-116) | pIC50 [1, 4] | pIC50 [2] | Structure (SMILES) | also measured
19 | 225 nM |  |  | Nc1ccc(-c2ccccc2)cc1NC(=O)c1ccc(CNC(=O)OCc2cccnc2)cc1 [Example 2a] | 
20 | 337 nM |  |  | Nc1ccc(-c2ccccc2)cc1NC(=O)c1ccc(CNC(=O)CCc2cccnc2)cc1 [Example 14a] | pIC50 (IKr ion channel): 5.43; pIC50 [1, 3]: 7.96; % CYP Inhibition @ 10 μM 2C9 (CYP2C9): 73%; % CYP Inhibition @ 10 μM 3A4 (CYP3A4): 65%; % CYP Inhibition @ 10 μM 2D6 (CYP2D6): 25%
21 | 435 nM |  |  | Nc1ccc(-c2ccccc2)cc1NC(=O)c1ccc(CNC(=O)OCc2ccccn2)cc1 [Example 14b] | % MK-499 Binding Inhibition @ 10 μM (IKr ion channel): 51%; pIC50 [1, 3]: 8.10; % CYP Inhibition @ 10 μM 2C9 (CYP2C9): 67%; % CYP Inhibition @ 10 μM 3A4 (CYP3A4): 38%; % CYP Inhibition @ 10 μM 2D6 (CYP2D6): 29%
22 | 230 nM |  |  | CCOC(=O)NCc1ccc(C(=O)Nc2cc(-c3ccccc3)ccc2N)cc1 [Example 14e] | % MK-499 Binding Inhibition @ 10 μM (IKr ion channel): 40%; pIC50 [1, 3]: 7.89; % CYP Inhibition @ 10 μM 2C9 (CYP2C9): 35%; % CYP Inhibition @ 10 μM 3A4 (CYP3A4): 22%; % CYP Inhibition @ 10 μM 2D6 (CYP2D6): 26%
23 | 230 nM |  |  | COC(=O)NCc1ccc(C(=O)Nc2cc(-c3ccccc3)ccc2N)cc1 [Example 14f] | % MK-499 Binding Inhibition @ 10 μM (IKr ion channel): 28%; % CYP Inhibition @ 10 μM 2C9 (CYP2C9): 46%; % CYP Inhibition @ 10 μM 3A4 (CYP3A4): 23%; % CYP Inhibition @ 10 μM 2D6 (CYP2D6): 49%
24 | 220 nM |  |  | CCCC(=O)NCc1ccc(C(=O)Nc2cc(-c3ccccc3)ccc2N)cc1 [Example 14g] | % MK-499 Binding Inhibition @ 10 μM (IKr ion channel): 38%; pIC50 [1, 3]: 8.00; % CYP Inhibition @ 10 μM 2C9 (CYP2C9): 27%; % CYP Inhibition @ 10 μM 3A4 (CYP3A4): 33%; % CYP Inhibition @ 10 μM 2D6 (CYP2D6): 28%
25 | 150 nM |  |  | CCC(=O)NCc1ccc(C(=O)Nc2cc(-c3ccccc3)ccc2N)cc1 [Example 14h] | % MK-499 Binding Inhibition @ 10 μM (IKr ion channel): 24%; pIC50 [1, 3]: 8.00; % CYP Inhibition @ 10 μM 2C9 (CYP2C9): 28%; % CYP Inhibition @ 10 μM 3A4 (CYP3A4): 30%; % CYP Inhibition @ 10 μM 2D6 (CYP2D6): 38%
26 | 335 nM |  |  | Nc1ccc(-c2ccccc2)cc1NC(=O)c1ccc(CNC(=O)C2CCCCC2)cc1 [Example 14i] | % MK-499 Binding Inhibition @ 10 μM (IKr ion channel): 30%; pIC50 [1, 3]: 7.70; % CYP Inhibition @ 10 μM 2C9 (CYP2C9): 32%; % CYP Inhibition @ 10 μM 3A4 (CYP3A4): 12%; % CYP Inhibition @ 10 μM 2D6 (CYP2D6): 17%
